The values below come from PMC8497620, “Structure and inhibition of Cryptococcus neoformans sterylglucosidase to develop antifungal agents” (Nature Communications, 2021).

Each structure is given as a SMILES string. Several values for one entry are separate records, joined by “and”; a condition that tells them apart may be missing. Equal entries are not always repeated.

The assay has as its system C. neoformans H99. The assay is described as follows: Mouse model of cryptococcosis, intraperitoneal treatment (CBA/J mice). It is filed as in vivo, Cryptococcus neoformans. The conditions noted are these: 10 mg/kg/day intraperitoneally; for CFU recovered from the brain: 14 days after infection; for lung CFU compared to vehicle-treated mice: days 3, 6, 9, 14; for Lung (CFU/mL): 10 mg/kg/day. As to the method:
For animal studies, 4-week-old CBA/J (Envigo) female mice were used. Mouse experiments were performed in full compliance with a protocol approved by Stony Brook University (IACUC number 341588) and in compliance with the United States Animal Welfare Act (Public Law 98–198). The experiments were carried out in facilities accredited by the Association for Assessment and Accreditation of Laboratory Animal Care. Mice were divided into sets of 12 mice for each treatment or control group (4 animals per cage) kept in an animal room (temperature, 22–24 °C; relative humidity, 35–45%) with artificial 12–12 h dark/light cycle. For the experiment with intraperitoneal (i.p.) treatment, mice were infected intranasally with 10 µL of a suspension containing 1 × 10^6 C. neoformans H99 cells and subsequently treated through i.p. injection with 10 mg/kg/day of hit 1 in a final volume of 100 µL of vehicle containing 10% PEG 200 in PBS. The untreated animals received 100 µL of vehicle. For the experiment with intranasal (i.n.) treatment, mice were infected with 1 × 10^5 C. neoformans H99 cells and received i.n. treatment with hit 1 in a final volume of 10 µL. Another group received treatment with 10 mg/kg/day of fluconazole i.p. and a third group received the combined treatment of hit1 by i.n. and fluconazole by i.p. Animals receiving only vehicle i.n. were used as a control group. In both experiments, three mice of each group were euthanized at day 3, 6, 9, and 14 post infection for CFU recovery from lungs and CFU recovery from brain on day 14.

For `COc1cccc(-c2ncc(CN3CCC(O)(CO)CC3)s2)c1` [Hit 1], the “CFU recovered from the brain” value was “no CFU were recovered from the brain” and the “lung CFU compared to vehicle-treated mice” value is “did not reduce lung colony-forming units”. Besides, for the setting “listed as hit 1”, the “CFU recovered from the brain” value is “No yeast cells were recovered from the brain”; the “lung CFU compared to vehicle-treated mice” value was “no significant difference among untreated and treated mice”. Besides, the “Lung (CFU/mL)” value (day 3 post infection) was 1200000 CFU/mL and 1520000 CFU/mL and 1480000 CFU/mL. Besides, the “Lung (CFU/mL)” value (day 9 post infection) is 25000000 CFU/mL and 14200000 CFU/mL and 19700000 CFU/mL. Further, where the note is “day 14 post infection”, the “Brain (CFU/mL)” value amounted to 0 CFU/mL; the “Lung (CFU/mL)” value was 28600000 CFU/mL and 29600000 CFU/mL and 22000000 CFU/mL.
